Key:
Recombinant human CD38 = biological target: T1, Recombinant human CD38 (Homo sapiens, UniProt P28907); assay: Human CD38 hydrolase assay (fluorescence-based, ε-NAD substrate); assay type: biochemical; settings: recombinant human CD38 0.8 nM, 4 μM ε-NAD, 30 min preincubation at 25° C.
T1 sequence (P28907 1-300): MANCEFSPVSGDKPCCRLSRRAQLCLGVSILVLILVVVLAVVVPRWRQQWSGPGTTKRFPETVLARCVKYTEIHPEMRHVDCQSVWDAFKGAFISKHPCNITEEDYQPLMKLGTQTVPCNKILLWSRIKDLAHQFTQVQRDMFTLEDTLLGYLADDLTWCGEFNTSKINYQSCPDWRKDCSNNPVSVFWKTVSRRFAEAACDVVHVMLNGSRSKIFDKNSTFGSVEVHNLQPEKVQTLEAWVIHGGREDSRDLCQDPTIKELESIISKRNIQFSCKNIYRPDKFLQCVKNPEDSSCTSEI
Experimental: The ability of test compounds to inhibit human CD38 hydrolase activity was measured in a fluorescence-based assay using non-physiological NAD^+ substrate analogue 1,N^6-etheno NAD^+ (ε-NAD). Recombinant human CD38 (0.8 nM) was preincubated with test compounds in 384-well black microplates for 30 min at 25° C. in PBS (—Ca^2+/Mg^2+) containing 0.005% BSA (pH 7.4). CD38 hydrolase activity was initiated by addition of 4 μM ε-NAD, which yields the fluorescent product 1,N^6-etheno ADP-ribose. Formation of fluorescent product was followed using ClarioStar Plus (BMG) microplate reader by reading fluorescence (excitation λ=300 nm; emission λ=410 nm) at two time points, one immediately after substrate addition (t=0) and one at 10 min (t=10). Data was analysed by subtracting the values detected at t=0 from t=10 to correct for variation in baseline fluorescence. Fluorescence values were converted to percent inhibition using the average of high signal (CD38 and ε-NAD) and low signal (CD38 and ε-NAD in the presence of a tool CD38 inhibitor) control wells. IC50 values were determined from a 10-point, half log concentration response curve with a four-parameter logistic equation.

Recombinant mouse CD38 = biological target: T2, Recombinant mouse CD38 (Mus musculus, UniProt P56528); assay: Mouse CD38 hydrolase assay (fluorescence-based, ε-NAD substrate); assay type: biochemical; settings: recombinant mouse CD38 0.4 nM, 12 μM ε-NAD, 30 min preincubation at 25° C.
T2 sequence (P56528 1-304): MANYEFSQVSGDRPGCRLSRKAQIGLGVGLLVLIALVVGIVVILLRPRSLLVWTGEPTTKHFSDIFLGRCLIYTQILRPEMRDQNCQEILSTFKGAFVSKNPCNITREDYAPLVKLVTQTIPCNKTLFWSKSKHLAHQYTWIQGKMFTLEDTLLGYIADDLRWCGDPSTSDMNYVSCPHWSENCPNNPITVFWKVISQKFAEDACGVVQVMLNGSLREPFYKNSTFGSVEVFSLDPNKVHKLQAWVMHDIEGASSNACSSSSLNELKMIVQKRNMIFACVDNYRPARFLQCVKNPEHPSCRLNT
Experimental: The ability of test compounds to inhibit mouse CD38 hydrolase activity was measured in a fluorescence-based assay using non-physiological NAD^+ substrate analogue 1,N^6-etheno NAD^+ (&-NAD). Recombinant mouse CD38 (0.4 nM) was preincubated with test compounds in 384-well black microplates for 30 min at 25° C. in PBS (—Ca^2+/Mg^2+) containing 0.005% BSA (pH 7.4). CD38 hydrolase activity was initiated by addition of 12 μM ε-NAD, which yields the fluorescent product 1,N^6-etheno ADP-ribose. Formation of fluorescent product was followed using ClarioStar Plus (BMG) microplate reader by reading fluorescence (excitation λ=300 nm; emission λ=410 nm) at two time points, one immediately after substrate addition (t=0) and one at 6 min (t=6).
Data was analysed by subtracting the values detected at t=0 from t=6 to correct for variation in baseline fluorescence. Fluorescence values were converted to percent inhibition using the average of high signal (CD38 and ε-NAD) and low signal (CD38 and ε-NAD in the presence of a tool CD38 inhibitor) control wells. IC50 values were determined from a 10-point, halflog concentration response curve with a four-parameter logistic equation.

## CC(F)(F)CN[C@H]1CC[C@H](NC(=O)c2cn3ncnc3c(-n3ccnc3)n2)CC1 [Example 57, N-((1r,4r)-4-((2,2-difluoropropyl)amino)cyclohexyl)-8-(1H-imidazol-1-yl)-[1,2,4]triazolo[1,5-a]pyrazine-6-carboxamide]
Recombinant human CD38
  IC50: ≤ 1000 nM
Recombinant mouse CD38
  IC50: ≤ 40 nM

## O=C(N[C@H]1CC[C@H](N2CC[C@@H](F)C2)CC1)c1nc(-n2ccnc2)nc2ncccc12 [Example 58, N-((1R,4r)-4-((R)-3-fluoropyrrolidin-1-yl)cyclohexyl)-2-(1H-imidazol-1-yl)pyrido[2,3-d]pyrimidine-4-carboxamide]
Recombinant human CD38
  IC50: ≤ 100 nM
Recombinant mouse CD38
  IC50: ≤ 40 nM

## O=C(N[C@H]1CC[C@H](NCC(F)(F)F)CC1)c1nc(-n2ccnc2)cn2ncnc12 [Example 59, 6-(1H-imidazol-1-yl)-N-((1r,4r)-4-((2,2,2-trifluoroethyl)amino)cyclohexyl)-[1,2,4]triazolo[1,5-a]pyrazine-8-carboxamide]
Recombinant human CD38
  IC50: ≤ 40 nM
Recombinant mouse CD38
  IC50: ≤ 40 nM

## N-((1r,4r)-4-((2,2-difluoroethyl)amino)cyclohexyl)-2-(1H-imidazol-1-yl)pyrido[2,3-d]pyrimidine-4-carboxamide [Example 33]
Recombinant human CD38
  IC50: ≤ 40 nM
Recombinant mouse CD38
  IC50: ≤ 40 nM

From US20260224582A1, “Heterobicyclic amides as inhibitors of CD38” (Cerevance, Inc., priority 2022, published 2026)
